Measurements reported in US20220380430A1, “Non-Transgenic Functional Rescue of Neuropeptides” (Worcester Polytechnic Institute, priority 2021, published 2022).
“Also recorded” adds a separate entry of the source. No end group written: not given here.

Assays:
NPR-10B = target: T1, NPR-10B (Caenorhabditis elegans, UniProt Q6EUU1); assay: In vitro GPCR activation assay (CHO-K1 cells, aequorin, human Gα16), NPR-10B; format: cell-based, C. elegans; conditions: title: NPR-10B; calcium/aequorin luminescence in transfected CHO-K1 cells
T1 sequence (Q6EUU1 1-362): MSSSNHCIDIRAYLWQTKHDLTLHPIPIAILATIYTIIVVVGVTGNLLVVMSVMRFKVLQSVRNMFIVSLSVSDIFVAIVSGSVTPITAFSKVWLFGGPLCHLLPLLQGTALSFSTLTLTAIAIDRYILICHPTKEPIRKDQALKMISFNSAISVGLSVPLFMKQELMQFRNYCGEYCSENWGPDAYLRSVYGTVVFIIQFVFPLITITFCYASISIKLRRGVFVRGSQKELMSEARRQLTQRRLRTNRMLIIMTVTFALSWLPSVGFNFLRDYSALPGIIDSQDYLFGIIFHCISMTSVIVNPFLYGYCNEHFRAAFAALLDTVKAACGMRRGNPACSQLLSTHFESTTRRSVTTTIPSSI
Experimental: Using Chinese hamster ovarian (CHO) cell cultures stably expressing the promiscuous G protein, Gα16, and the calcium reporter, aequorin, it was observed that both isoforms of NPR-10 are activated by seven of the ten FLP-3 peptides, with half-maximal effective concentrations (EC50) in the nM range (FIG. 14A-FIG. 14H, Table V). […] This peptide contains an R-to-K mutation within the C-terminal motif, which may explain the lack of receptor activation.
(§1) The GPCR activation assay was performed as previously described Van Sinay, E. et al. Proc. Natl Acad. Sci. USA 114, E4065-e4074 (2017) and Peymen, K. et al. PLoS Genet. 15, e1007945 (2019). Briefly, npr-10 and frpr-16 cDNAs were cloned into the pcDNA3.1 TOPO expression vector (Thermo Fisher Scientific). A CHO-K1 cell line (PerkinElmer, ES-000-A24) stably expressing apo-aequorin targeted to the mitochondria (mtAEQ) and human Gα16 was transiently transfected with the receptor cDNA construct or the empty pcDNA3.1 vector using Lipofectamine LTX and Plus reagent (Thermo Fisher Scientific). Cells were shifted to 28° C. one day later and allowed to incubate for 24 h. On the day of the assay, cells were collected in BSA medium (DMEM/Ham's F12 with 15 mM HEPES, without phenol red, 0.1% BSA) and loaded with […] coelenterazine h (Thermo Fisher Scientific) for 4 h at room temperature. The incubated cells were then added to synthetic peptides dissolved in DMEM/BSA, and luminescence was measured for 30 s at […] using a Mithras LB940 (Berthold Technologies) or MicroBeta LumiJet luminometer (PerkinElmer). After 30 s of readout, 0.1% triton X-100 was added to lyse the cells, resulting in a maximal calcium response that was measured for 10 s. After initial screening, concentration-response curves were constructed for HPLC-purified FLP-3 peptides by subjecting the transfected cells to each peptide in a concentration range from 1 pM to 10 μM. Cells transfected with an empty vector were used as a negative control. Assays were performed in triplicate on at least two independent days. Concentration-response curves were fitted using Prism v. 7 (nonlinear regression analysis with a sigmoidal concentration-response equation).

FRPR-16 = target: T2, FRPR-16 (Caenorhabditis elegans, UniProt Q21957); assay: In vitro GPCR activation assay (CHO-K1 cells, aequorin, human Gα16), FRPR-16; format: cell-based, C. elegans; conditions: calcium/aequorin luminescence in transfected CHO-K1 cells
T2 sequence (Q21957 1-340): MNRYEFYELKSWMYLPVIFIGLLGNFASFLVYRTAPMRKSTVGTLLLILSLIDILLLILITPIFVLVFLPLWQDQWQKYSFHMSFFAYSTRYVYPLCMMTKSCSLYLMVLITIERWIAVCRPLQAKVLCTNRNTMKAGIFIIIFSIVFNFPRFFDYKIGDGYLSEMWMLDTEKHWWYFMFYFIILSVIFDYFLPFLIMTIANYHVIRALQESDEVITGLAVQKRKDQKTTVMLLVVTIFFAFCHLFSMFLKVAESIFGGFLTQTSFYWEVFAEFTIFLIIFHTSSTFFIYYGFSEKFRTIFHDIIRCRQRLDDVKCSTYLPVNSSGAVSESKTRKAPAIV
Experimental: as §1

flp-3 lof males [1] = assay: Drop avoidance assay to ascr #8 after FLP-3 peptide rescue-by-feeding; format: in vivo, C. elegans; conditions: flp-3 lof males raised on peptide; 1 μM ascr #8; in words
Experimental: To identify which FLP-3 peptides are required for male avoidance of ascr #8, a peptide feeding approach https://www.nature.com/articles/s42003-021-02547-7-ref-CR59 was adopted, similar to RNAi feeding (FIG. 16A). Using Gateway Cloning technology, FLP-3 peptide coding sequences were inserted into a bacterial expression vector. As a control, first the FLP-3 peptides were tested that are still encoded in the ok3625 allele which are insufficient to drive the proper ascr #8 response in vivo: FLP-3-1 (SPLGTMRFamide) (SEQ ID NO: 10) and FLP-3-4 (NPLGTMRFamide) (SEQ ID NO: 11). Then flp-3 lof animals were reared on lawns of bacteria expressing the rescue constructs, and their progeny were assayed for avoidance (FIG. 16B-FIG. 16D).
Assays were performed as described previously in Chute, C. D. & Srinivasan, J. Semin. Cell Dev. Biol. 33, 18-24 (2014); Chute, C. D. et al. Nat. Commun. 10, 3186 (2019); and Hilliard, M. A. et al., EMBO J. 23, 1101-1111 (2004). Fifty to sixty L4 worms were segregated by sex and stored at 20° C. for 5 h to overnight to be assayed as young adults. One to four hours prior to the assay, the lids of unseeded plates were tilted to allow any excess moisture to evaporate off the plates. At the time of the assay, 10 or more animals were transferred onto each of the dried, unseeded plates. A drop of either water or 1 μM ascr #8 was placed on the tail of forward moving animals, and their response was scored as either an avoidance response, or no response. The total number of avoidances was divided by the total number of drops to generate an avoidance index for that plate. This was repeated for at least 10 plates over at least three different days.
SCRAMBLE control or FLP-3 peptide constructs were grown overnight in LB media containing […] ampicillin at 37° C. and diluted to an OD600 of 1.0 prior to seeding on NGM plates containing […] ampicillin and 1 mM IPTG. The 75 μL lawn was left to dry and grow overnight at room temperature before three L4 animals were placed on the plates. Males were selected for testing in the same manner as described above but were isolated onto plates also seeded with the same peptide on which they had been reared. Animals were then assayed using either the avoidance assay or single worm assay.

flp-3 lof males [2] = assay: Single worm attraction assay (SWAA) to ascr #8 after FLP-3 peptide rescue-by-feeding; format: in vivo, C. elegans; conditions: flp-3 lof males raised on peptide; in words
Experimental: The outer forty wells of a 48-well suspension culture plate (Olympus Plastics, Cat #: 25-103) were seeded with 200 μL of standard NGM agar. To prepare the plates for the assay, they were acclimated to room temperature, at which point each well was seeded with 65 μL of OP50 E. coli. The assay plates were then transferred to a 37° C. incubator with the lid tilted for 4 h to allow the bacterial culture to dry on the agar. Once the bacterial culture dried, the lid was replaced the plate was stored at 20° C. until used in the assay. Fifty to sixty L4 worms were segregated by sex and stored at 20° C. for 5 h to overnight to be assayed as young adults. 0.8 μL of either vehicle control or ascaroside #8 was placed in the center of the well corresponding to that condition within the quadrant being tested, following a random block design (FIG. 11A). A single worm was placed in each of the 10 wells to be assayed, and the plate was transferred to a light source and camera and recorded for 15 m. This process was repeated for all four quadrants. Each strain and sex were assayed over five plates assayed on at least three different days. Raw dwell time values were calculated by subtracting the time a worm exited the cue (center of the well in spatial controls), from the time it entered, as in the SRA. This was determined per visit, and the average dwell time was calculated for each animal in the quadrant. Averages of the four-quadrant means were determined per plate, and a minimum of five plates were assayed per strain/condition. The mean raw dwell time across five plates was calculated and used for statistical analyses and graphical display. The average dwell time in the ascaroside was divided by the average dwell time within the vehicle control per plate to generate a fold-change. To transform the data, the log of this fold-change was taken, and the average log(fold-change) was used for statistical analyses and graphical display. […]

ins-6 lof worms = assay: NaCl chemotaxis assay after rescue-by-feeding; format: in vivo, C. elegans; conditions: 750 mM NaCl, in words
Experimental: All animals were maintained on bacterial lawns of OP50 E. coli, at 20° C., on NGM agar plates until the start of experiments. Mutant or control animals were transferred onto lawns of DH5α E. coli expressing either scramble peptide or the rescue peptide-of-interest on NGM plates containing […] AMP and 1 mM IPTG. Animals were reared on the peptide-expressing lawns for at least 48 hours at 20° C. before assaying for rescue of mutant phenotype at the appropriate developmental stage.
A salt chemotaxis assay was performed as previously described in Leinwand, S. G. & Chalasani, S. H. Nature neuroscience 16, 1461-1467 (2013); Bargmann, C. I. & Horvitz, H. R. Neuron 7, 729-742 (1991) to test the functionality of ins-6 after rescue-by-feeding. Wild-type (N2) and ins-6 worms were fed either scramble or INS-6 peptide passing 4-6 L4 larval onto an NGM plate containing […] AMP and 1 mM IPTG with 75 μL of peptide OD600=1.0. These worms were grown at 20° C. for about 4 days until the progeny of the initial L4 worms were young adults.
The day prior to testing, a thin, 10 mL layer of agar was added to 10 cm petri dishes to generate a 10 cm Chemotaxis Plates (5 mM KPO4 (pH 6.0), 1 μM MgSO4, 1 μM CaCl2), 20 g/L agar, and 8 g/L Difco Nutrient Broth). To prepare the “high salt” plates, 750 mM NaCl was added prior to plate pouring. The high salt plate were stored at 4° C. for up to one month, while the Chemotaxis Plates were made one day prior to testing. To create the high and low salt plugs, the back end of a Pasteur pipette was used to punch a 5 mm plug out of each plate. These 2 plugs were placed on opposite edges of the plate. A 10 mm radius was be drawn around the location of the plugs (FIG. 1). Plates were stored, lightly covered, overnight at room temperature (˜20° C., <40% humidity). […]
Young adult hermaphrodites are tested in the Chemotaxis Assay with no more than three replicates per day, over a minimum of three days, with 100-200 worms/assay plate. The […] Chemotaxis Index (CI) was calculated as follows: […]

Row | Substance | EC50 (NPR-10B) [nM] | EC50 (FRPR-16) [nM] | rescue of avoidance phenotype to ascr #8 (Avoidance Index) (flp-3 lof males [1]) | rescue of attraction to ascr #8 (dwell time, log(fold-change)) (flp-3 lof males [2]) | rescue of NaCl chemotaxis (ins-6 lof worms; ins-6 lof worms fed peptide) | chemotaxis on overexpression by feeding (ins-6 lof worms; wild-type animals fed INS-6)
1 | NPENDTPFGTMRF-NH2 [FLP-3-9, NPENDTPFGTMRFamide] | 760 | 88.3 | lack of avoidance to ascr #8; also recorded: undo the Avoidance phenotype associated with the flp-3 mutation | full rescue of their ability to be attracted to the cue; also recorded: restores the attraction to wild-type | – | –
2 | VPAPGETRACGRKLISLVMAVCGDLCNPQEGKDIATECCGNQCSDDYIRSACCP-NH2 (cysteine pairing not given here) [INS-6] | – | – | – | – | complete rescue of NaCl chemotaxis; also recorded: restores the Chemotaxis Index at a level similar to the canonical transgenic rescue; also recorded: complete restoration of attraction to high salt concentration | does not result in changes in attraction towards 750 mM NaCl; also recorded: does not affect chemotaxis in wild type animals; also recorded: slight defects in CI towards high salt
3 | TPLGTMRF-NH2 [FLP-3-2, TPLGTMRFamide] | 366 | 31.7 | able to abolish the avoidance phenotype; also recorded: undo the Avoidance phenotype associated with the flp-3 mutation | not able to restore the animal's ability to be attracted to ascr #8; also recorded: seems to make the animals less attracted to the cue | – | –
